Laboratory results reported in US20190256827A1, “EPIGENOME EDITING SYSTEMS AND METHODS” (STC.UNM, priority 2017, published 2019).

How the values were obtained:
[1] = tested on: HBA mRNA in HEK293T cells; experiment: qPCR of HBA mRNA levels; assay type: cell-based, human; settings: HBA sgRNAs; ABA vs DMSO
Method: (§1) To determine if the new method can be used to modify H3K27Ac at other gene loci, sgRNAs were designed that target the promoter region of other genes with low expression levels in HEK293T cells, including GRM2, HBA and MYOD1 (Table 1).
(§2) Human embryonic kidney cell HEK293T (American Type Culture Collection, Manassas, Va.) was cultured in Dulbecco's modified Eagle's medium (DMEM) (Gibco) with 10% FBS (Atlanta Biologicals), 1× GlutaMax (Gibco, Thermo Fisher Scientific, Inc., Waltham, Mass.), and 1× penicillin/streptomycin (Pen/Strep; Gibco, Thermo Fisher Scientific, Inc., Waltham, Mass.). Cells (100,000/ml) were plated in 24-well or 10-cm cell culture plate the day before transfection. […]
(§3) Total RNA was extracted using the EZNA Total RNA Kit I (Omega Bio-tek, Inc., Norcross, Ga.). qPCR reactions were performed on cDNA prepared from 1,000 ng of total cellular RNA using the High-Capacity cDNA Reverse Transcription Kit (Applied Biosystems Co., Thermo Fisher Scientific, Inc., Foster City, Calif.). […] Data were analyzed using the SDS software, version 2.4 (Applied Biosystems Co., Thermo Fisher Scientific, Inc., Foster City, Calif.), by the ΔΔCt method: the Ct values of target gene were normalized to Ct values of GAPDH, the folds of target gene expression changes were normalized to experimental controls. Analyzed data are reported as the mean±s.e.m. for biological replicates. […]

[2] = tested on: MYOD1 locus in HEK293T cells; experiment: ChIP-qPCR of FLAG-ABI-P300 and H3K27Ac at the MYOD1 locus; assay type: cell-based, human; settings: MYOD1 sgRNAs; ABA treatment for 48 hours
[3] = tested on: luciferase reporter gene (fos-Luc) in CHO cells; experiment: ABA-induced luciferase expression using integrated CRISPR/CIP (PYL-VP80 / dCas9-NLS-ABI, fos-Luc reporter, sgRNAs); assay type: cell-based; settings: CHO cells transfected for 24 hours; ABA 100 μM for 16 hours
Excerpt: In one exemplary embodiment, ABA-induced ABI-PYL dimerization recruited a transcriptional activator to a DNA sequence targeted by sgRNAs and dCas9, and turn on the expression of a reporter gene. Several DNA plasmids were constructed for this purpose, including: (i) a DNA plasmid (PYL-VP80-ires-dCas9-NLS-ABI) encoding the transcriptional activator VP80 fused to PYL (PYL-VP80) and dCas9 with a nuclear localization signal (NLS) fused to ABI (dCas9-NLS-ABI); (ii) a luciferase reporter gene (fos-Luc) that contains the fos minimal promoter to give minimal background expression; and (iii) several sgRNA expression constructs to target the upstream region (within 1.5 kb) of the luciferase gene. […] Also, specific combinations of multiple sgRNAs increased the induced expression level. In other applications, the fold induction can be improved by optimizing the targeting region of sgRNAs, the combination of different sgRNAs, and/or the framework of fusion proteins, which may lead to a better positioning of the recruited transcription machinery relative to the transcription start site. […] Since histone posttranslational modifications are generally present in an expanded region instead of a specific location (e.g., a transcription start site), the precise positioning may not be as critical for epigenome editing.

[4] = tested on: GRM2 mRNA in HEK293T cells; experiment: qPCR of GRM2 mRNA levels; assay type: cell-based, human; settings: GRM2 sgRNAs; ABA vs DMSO
Method: as §1, §2, §3

CC1=CC(=O)CC(C)(C)[C@@]1(O)/C=C/C(C)=C\C(=O)O [ABA, abscisic acid]
level of HBA mRNA [1]: increases correspondingly
enrichment of FLAG-ABI-P300 at the MYOD1 locus [2]: causes the enrichment
enrichment of H3K27Ac at the MYOD1 locus [2]: causes the enrichment
luciferase expression [3]: luciferase expression was induced
level of GRM2 mRNA [4]: increases correspondingly
